PubChem BioAssay AID504322 (Emory University Molecular Libraries Screening Center, 2011)
Calls of active or inactive are those of the source. How the calls were made is not given here.

Test system: CHOP reporter cell assay, percent of control
Assay: CHOP reporter inhibitor potency, dose response, cell-based (AID 504322);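 further: CHO cells carrying a CHOP reporter stimulated with tunicamycin to induce ER stress; potency is for inhibition of the stress-induced reporter signal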

SMILES | IC50
C=CCn1c(SCC(=O)c2[nH]c(C)c(C(=O)OC)c2C)nc2scc(-c3ccc(OC)c(OC)c3)c2c1=O | 6.22 µM (inactive)
Oc1ccc(Br)cc1-c1nc2cnccn2c1NC1CCCCC1 | > 10 µM (inactive)
CC1(c2ccccc2)CC(C)(C)N2C(=O)C3(C(C#N)=C(N)Oc4cc(O)ccc43)c3cccc1c32 (stereo not drawn) | 5.48 µM (inactive)
O=c1oc2ccccc2c(Cl)c1CN1CCCCC1 | 9.26 µM (inactive)
C=CCn1c(CCc2cc(C(C)(C)C)c(O)c(C(C)(C)C)c2)n[nH]c1=S | 7 µM (inactive)
CC(C)(C)c1ccc(C(=O)NNC(=O)c2cccc(Br)c2)cc1 | > 10 µM (inactive)
CCCCCCn1c(-c2ccco2)nc2oc3cc(OC)ccc3c(=O)c2c1=O | 9.42 µM (inactive)
CC(C)=CCc1c(O)c(CC=C(C)C)c2c(c1O)C(=O)CC(c1ccc(O)cc1)O2 (stereo not drawn) | 9.61 µM (inactive)
COc1ccc(CCNC(=O)c2nnn(-c3ccc4c(c3)OCCO4)c2N)cc1OC | 0.69 µM
CC1(C)CC(C(CCN(Cc2ccccc2)C(=O)c2ccco2)c2ccc(F)cc2)CCO1 (stereo not drawn) | 9.7 µM (inactive)
CCCc1cc(C(=O)Cc2ccc(F)cc2)c(O)cc1O | 5.98 µM (inactive)
C=CCc1cccc(/C=N/NC(=O)CCCNc2ccc(C)cc2)c1O | 9.23 µM (inactive)
CCc1ccc(-c2nc(CSCC(=O)NCc3ccco3)c(C)o2)cc1 | < 0.16 µM
O=C(Nc1ccc(-c2nc3ccccc3o2)cc1)c1ccc(N2CCOCC2)c([N+](=O)[O-])c1 | 3.54 µM
O=C(Nc1ccc(OC(F)F)cc1)Nc1cccc(C(F)(F)F)c1 | 8.9 µM (inactive)
Cc1csc(NC(=O)CSc2nnc3c4ccccc4nc(C(C)(C)C)n23)n1 | 9.55 µM (inactive)
CCOc1ccc(N=Cc2c(O)n(C(C)(C)C)c(=O)[nH]c2=O)cc1 | 9.2 µM (inactive)
COc1cc(/C=N/O)cc(Br)c1OCc1cccc(Cl)c1 | 6.16 µM (inactive)
Cn1cnc([N+](=O)[O-])c1S(=O)(=O)c1cccc(Cl)c1 | 8.11 µM (inactive)
O=C(/C=C/c1ccccc1)Nc1cccc(C(=O)O)c1 | 3.59 µM (inactive)
COc1ccc(NC(=O)/C(Cl)=C(/Cl)S(=O)Cc2ccc(Cl)cc2)cn1 (stereo not drawn) | 1.99 µM
C=CCSc1nc2ccccc2n1C(=O)/C=C/c1cc(OC)c(OC)c(OC)c1 | 4.16 µM
Cc1nc(COC(=O)c2cc(O)c3ccccc3c2O)cs1 | > 10 µM (inactive)
CC(C)=C1C2CCC1C(C(=O)Nc1sc(C)c(-c3ccc(C(C)C)cc3)c1C(N)=O)C2C(=O)O (stereo not drawn) | 4.8 µM

SMILES | IC50
CCCCn1c(=O)c(C(=O)Nc2cnccn2)c(O)c2ccccc21 | 7.31 µM (inactive)
CCCCCCn1c(CN2CCCC(C)C2)nc2c1c(=O)n(C)c(=O)n2C (stereo not drawn) | > 10 µM (inactive)
Nc1ccc2oc(-c3cc(Br)ccc3Cl)nc2c1 | 0.71 µM
C=CCN1C(=O)/C(=C/c2ccc(OC(C)=O)c(OCC)c2[N+](=O)[O-])SC1=S | 5.3 µM (inactive)
Cc1cc(C)c(S(=O)(=O)c2ccccc2)c(OC(=O)c2cc(F)c(F)cc2Cl)n1 | 8.2 µM (inactive)
Cc1cccc(NC(=O)/C(C#N)=C/c2cn(CC(=O)NCc3ccco3)c3ccccc23)c1C | > 10 µM (inactive)
Cc1ccc(-n2c(=O)[nH]c3c(C(N)=O)nc(-c4ccc(C)o4)nc32)cc1 | > 10 µM (inactive)
CCc1ccc(-c2nc(CN3CCC(C(=O)NCCN(CC)c4ccccc4)CC3)c(C)o2)cc1 | 3.46 µM (inactive)
CC(NC(=O)/C(C#N)=C/c1ccc(Cl)c([N+](=O)[O-])c1)c1ccccc1 (stereo not drawn) | 9.98 µM (inactive)
NC(=O)c1ccc(C(F)(F)F)n(Cc2c(Cl)cccc2Cl)c1=O | 9.4 µM (inactive)
Cc1cc(C)c2c(c1)/C(=N/NS(=O)(=O)c1ccc(Br)cc1)CCC2 | 9.49 µM (inactive)
CCC(NC(=O)Nc1nnc(C(F)(F)F)s1)(C(F)(F)F)C(F)(F)F | 2.56 µM (inactive)
COc1ccc(OCc2cccc(C(=O)O)c2)cc1 | 0.87 µM
O=c1[nH]c2ccccc2n1C1CCN(CCCC(c2ccc(F)cc2)c2ccc(F)cc2)CC1 | 6.34 µM (inactive)
Cc1cc2c(cc1C)CSC(c1ccccc1O)SC2 | > 10 µM (inactive)
CN(C)c1ccc(/C=C2\SC(=O)N(CCc3nnc(N)s3)C2=O)cc1 | 9.8 µM (inactive)
Cc1cc(/C=c2/sc3nc4ccccc4n3c2=O)c(C)n1-c1ccccn1 | < 0.16 µM
COc1ccc(NC(=O)/C(Cl)=C(/Cl)S(=O)Cc2ccccc2Cl)cn1 (stereo not drawn) | 0.3 µM
CCOc1ccc(N(CC(=O)Nc2cccc(Cl)c2)S(=O)(=O)c2c(C)noc2C)cc1 | 2.02 µM
CC(C)(C)c1nnc(N/N=C/c2cc(Br)ccc2O)n(N)c1=O | 5.11 µM (inactive)
CCc1ccc(OCC(=O)NC(NC(=S)Nc2ccc(Cl)cc2)C(Cl)(Cl)Cl)cc1 (stereo not drawn) | 5.13 µM (inactive)
O=C(NCc1ccccc1Cl)c1ccc(S(=O)(=O)Nc2cccc(C(F)(F)F)c2)cc1 | > 10 µM (inactive)
COC(=O)[C@]12OC[C@]34C([C@@H](O)[C@@H]1O)[C@]1(C)CC(=O)C(O)=C(C)[C@@H]1C[C@H]3OC(=O)[C@H](O)[C@@H]24 (stereo partly drawn) | < 0.16 µM
COc1ccc(CC2(CO)CCN(CC3=Cc4cc(Cl)ccc4OC3)CC2)cc1 | 0.87 µM (inactive)
